Series [1] has as its system Staphylococcus aureus. Put plainly: Antibacterial activity against methicillin-resistant Staphylococcus aureus isolate OM505 after 24 hrs by liquid dilution method. It counts as functional. Particulars: isolate OM505, 24 h.
For series [2], the system named is Pseudomonas aeruginosa. Nature of the series: Antibacterial activity against Pseudomonas aeruginosa PAO1 after 24 hrs by liquid dilution method. It counts as functional.
For series [3], the target named is T1, Albumin (Bos taurus, UniProt P02769). Put plainly: Binding affinity to bovine serum albumin by SDS-PAGE analysis. In kind it is ADME. The conditions noted are these: cattle, isolated protein.
T1 sequence (P02769 whole entry): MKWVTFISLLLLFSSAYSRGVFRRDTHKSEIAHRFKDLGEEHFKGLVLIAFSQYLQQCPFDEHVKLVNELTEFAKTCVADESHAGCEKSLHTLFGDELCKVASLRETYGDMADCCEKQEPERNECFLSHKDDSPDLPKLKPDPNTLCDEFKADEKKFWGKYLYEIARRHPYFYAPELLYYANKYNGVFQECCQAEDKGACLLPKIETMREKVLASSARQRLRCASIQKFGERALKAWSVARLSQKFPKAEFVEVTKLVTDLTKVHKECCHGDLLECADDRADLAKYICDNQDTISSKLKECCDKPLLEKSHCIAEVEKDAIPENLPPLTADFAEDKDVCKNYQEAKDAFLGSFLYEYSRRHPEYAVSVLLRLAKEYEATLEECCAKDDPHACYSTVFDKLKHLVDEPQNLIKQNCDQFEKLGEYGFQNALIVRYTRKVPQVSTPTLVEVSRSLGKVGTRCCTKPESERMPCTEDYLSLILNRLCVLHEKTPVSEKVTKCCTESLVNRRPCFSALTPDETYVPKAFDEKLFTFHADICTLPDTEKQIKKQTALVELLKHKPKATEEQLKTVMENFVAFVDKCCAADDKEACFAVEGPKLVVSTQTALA
Series [4] concerns Pseudomonas aeruginosa. Nature of the series: Antibacterial activity against Pseudomonas aeruginosa PAO1 assessed as inhibition of green pigment formation. It counts as functional.
For series [5], the target named is T1, Albumin. Put plainly: Binding affinity to bovine serum albumin assessed as retention time for compound-protein complex formation at 0.5 mg/ml by size exclusion chromatographic method (reference value: 16 mins). The conditions noted are these: cattle. It counts as ADME. Background: In gel filtration, larger molecules generally elute earlier.
For series [6], the system named is Staphylococcus aureus. Nature of the series: Antibacterial activity against methicillin-sensitive Staphylococcus aureus 209P after 24 hrs by liquid dilution method. In kind it is functional.
The subject of series [7] is Staphylococcus aureus. Put plainly: Antibacterial activity against methicillin-resistant Staphylococcus aureus isolate OM481 after 24 hrs by liquid dilution method. It counts as functional. The conditions noted are these: isolate OM481, 24 h.
Series [8] concerns Staphylococcus aureus. Put plainly: Antibacterial activity against methicillin-sensitive Staphylococcus aureus 209P. In kind it is functional.
Series [9] concerns Staphylococcus aureus. Put plainly: Antibacterial activity against methicillin-resistant Staphylococcus aureus isolate OM505. In kind it is functional.
For series [10], the system named is Staphylococcus aureus. Put plainly: Antibacterial activity against methicillin-resistant Staphylococcus aureus isolate OM481. In kind it is functional.

The values that follow come from ChEMBL document CHEMBL4130481, “Structures and Antibacterial Properties of Isorugosins H-J, Oligomeric Ellagitannins from Liquidambar formosana with Characteristic Bridging Groups between Sugar Moieties” (J Nat Prod, 2017).

Values after ≈ are worked out from the molar mass of the structure shown. Active and inactive are the calls of the source. The rule behind the calls is not given here.

In general, MIC refers to the least concentration at which growth counts as inhibited.

Take `O=C(O[C@H]1[C@@H]2OC(=O)c3cc(Oc4c(C(=O)O)cc(O)c(O)c4O)c(O)c(O)c3-c3c(cc(O)c(O)c3O)C(=O)OC[C@H]2OC(O)[C@@H]1OC(=O)c1cc(O)c(O)c(O)c1)c1cc(O)c(O)c(O)c1` (some centres undefined): the MIC was 67 µM (≈ 64 µg/mL) in [1]; over 1070 µM in [2] (PAO1, 24 h); 34 µM (≈ 32.5 µg/mL) in series [4]; 67 µM (≈ 64 µg/mL) in series [6]; 34 µM (≈ 32.5 µg/mL) in [7]. In addition, the outcome in series [3] was Active. In series [5], the Retention time lay in the range of 9 to 12 min.

On to `O=C(O[C@@H]1COC(=O)c2cc(O)c(O)c(O)c2-c2c(cc(O)c(O)c2O)C(=O)O[C@H]1[C@@H]1OC(=O)c2cc(O)c(O)c(O)c2-c2c(O)c(O)c(O)c3c2C(=O)O[C@H]1[C@H]3O)c1cc(O)c(O)c(O)c1`, for which the inhibition result in [4] was “Active”.

With `O=C(O[C@@H]1O[C@@H]2COC(=O)c3cc(O)c(O)c(O)c3-c3c(cc(Oc4c(C(=O)O)cc(O)c(O)c4O)c(O)c3O)C(=O)O[C@H]2[C@H](OC(=O)c2cc(O)c(O)c(O)c2)[C@H]1OC(=O)c1cc(O)c(O)c(O)c1)c1cc(O)c(O)c(O)c1`, the MIC was 58 µM (≈ 64.2 µg/mL) in series [1]; over 926 µM in [2] (PAO1, 24 h); 29 µM (≈ 32.1 µg/mL) in [4]; 58 µM (≈ 64.2 µg/mL) in series [6]; 29 µM (≈ 32.1 µg/mL) in series [7]. For the same molecule, the result in [3] was Active. In addition, in series [5], the Retention time lay within 9 to 12 min.

In series [2] (PAO1, 24 h), `NCC[C@H](O)C(=O)N[C@@H]1C[C@H](N)[C@@H](O[C@H]2O[C@H](CN)[C@@H](O)[C@H](O)[C@H]2O)[C@H](O)[C@H]1O[C@H]1O[C@H](CO)[C@@H](O)[C@H](N)[C@H]1O` [AMIKACIN] registered an MIC of 14 µM (≈ 8.2 µg/mL).

Consider `Cc1onc(-c2ccccc2)c1C(=O)N[C@@H]1C(=O)N2[C@@H]1SC(C)(C)[C@@H]2C(=O)O` [OXACILLIN], for which the MIC in [1] is 319 µM (≈ 128 µg/mL); in series [6], under 0.6 µM; in [7], 638 µM (≈ 256 µg/mL).

Take `O=C1OC[C@H]2O[C@H](O)[C@@H]3OC(=O)c4cc(O)c(O)c(O)c4-c4c(cc(O)c(O)c4O)C(=O)O[C@H]3[C@@H]2OC(=O)c2cc(O)c(O)c(O)c2-c2c1cc(O)c(O)c2O`: the inhibition entry in series [4] is “Active”.

On to `O=C(OC[C@H]1O[C@@H](OC(=O)c2cc(O)c(O)c(O)c2)[C@H](OC(=O)c2cc(O)c(O)c(O)c2)[C@@H](OC(=O)c2cc(O)c(O)c(O)c2)[C@@H]1OC(=O)c1cc(O)c(O)c(O)c1)c1cc(O)c(O)c(O)c1` [PENTAGALLOYL GLUCOSE], for which the MIC in series [8], in [9] and in series [10] was 68 µM (≈ 64 µg/mL) each time. The inhibition result in series [4] was “Active”.

Take `O=C(O[C@@H]1O[C@@H]2COC(=O)c3cc(O)c(O)c(O)c3-c3c(cc(Oc4c(C(=O)O[C@@H]5O[C@@H]6COC(=O)c7cc(O)c(O)c(O)c7-c7c(cc(O)c(O)c7O)C(=O)O[C@H]6[C@H](OC(=O)c6cc(O)c(O)c(O)c6)[C@H]5OC(=O)c5cc(O)c(O)c(O)c5)cc(O)c(O)c4O)c(O)c3O)C(=O)O[C@H]2[C@H](OC(=O)c2cc(O)c(O)c(O)c2)[C@H]1OC(=O)c1cc(O)c(O)c(O)c1)c1cc(O)c(O)c(O)c1`: the MIC was 68 µM (≈ 128 µg/mL) in [1]; over 546 µM in series [2] (PAO1, 24 h); 34 µM (≈ 63.8 µg/mL) in series [4]; 34 µM (≈ 63.8 µg/mL) in series [6]; 34 µM (≈ 63.8 µg/mL) in [7]. For the same molecule, the outcome in series [3] was Active. Also, in series [5], the Retention time was in the range of 9 to 12 min.

Molecule GENTAMICIN yielded an MIC in series [2] of 17 µM.

Regarding `O=C(O[C@@H]1O[C@@H]2COC(=O)c3cc(O)c(O)c(O)c3-c3c(cc(Oc4c(C(=O)O[C@@H]5O[C@@H]6COC(=O)c7cc(O)c(O)c(O)c7-c7c(cc(Oc8c(C(=O)O[C@@H]9O[C@@H]%10COC(=O)c%11cc(O)c(O)c(O)c%11-c%11c(cc(O)c(O)c%11O)C(=O)O[C@H]%10[C@H](OC(=O)c%10cc(O)c(O)c(O)c%10)[C@H]9OC(=O)c9cc(O)c(O)c(O)c9)cc(O)c(O)c8O)c(O)c7O)C(=O)O[C@H]6[C@H](OC(=O)c6cc(O)c(O)c(O)c6)[C@H]5OC(=O)c5cc(O)c(O)c(O)c5)cc(O)c(O)c4O)c(O)c3O)C(=O)O[C@H]2[C@H](OC(=O)c2cc(O)c(O)c(O)c2)[C@H]1OC(=O)c1cc(O)c(O)c(O)c1)c1cc(O)c(O)c(O)c1`, the MIC in series [1] was 91 µM (≈ 256 µg/mL); in series [2] (PAO1, 24 h), over 364 µM; in series [4], 23 µM (≈ 64.7 µg/mL); in [6] it was 23 µM (≈ 64.7 µg/mL); in series [7] it was 91 µM (≈ 256 µg/mL). In addition, in series [3], the outcome was Active. Moreover, the Retention time in series [5] is 9 to 12 min.
